The values that follow come from patent US20250281519A1, “NUCLEOTIDE AND NUCLEOSIDE THERAPEUTIC COMPOSITIONS, COMBINATIONS AND USES RELATED THERETO” (EMORY UNIVERSITY, priority 2021, published 2025).

Series [1] is described as follows: Cytotoxicity in RD cells (enterovirus assays). Particulars: human. It is filed as cell-based.
The next series has as its system EV70. Put plainly: CPE reduction assay, EV70. The format is cell-based. The conditions noted are these: Huh-7; EV70, strain J670/71, Huh7 cells.
The subject of another series is COXV A18. Put plainly: CPE reduction assay, COXV A18. The format is cell-based. Particulars: Huh-7; COXV A18, strain G13, Huh7 cells.
The test system of another series is COXV B4. Put plainly: CPE reduction assay, COXV B4. It is filed as cell-based. Particulars: Huh-7; COXV B4, strain JVB, Huh7 cells.
The nature of a further series: in vitro. The conditions noted are these: human.
The next series concerns COXV B2. Put plainly: CPE reduction assay, COXV B2. The format is cell-based. The conditions noted are these: COXV B2, strain Ohio 1, Huh7 cells.
A short description of series [2]: Cytotoxicity in MRC-5 cells (enterovirus assays). It is filed as cell-based. Particulars: human, line of EV71 H.
Another series has as its system HRV. Put plainly: CPE reduction assay, HRV. The format is cell-based. The conditions noted are these: HeLa.
The subject of another series is EV68. Put plainly: CPE reduction assay, EV68. The format is cell-based. Particulars: EV68, strain US/KY/14-18953, RD cells.
For the next series, the system named is EV71. The series can be described thus: CPE reduction assay, EV71. It is filed as cell-based. The conditions noted are these: Enterovirus A.
The nature of series [3]: Cytotoxicity in HeLa cells (enterovirus assays). The format is cell-based. The conditions noted are these: human, line of HRV 26.
A further series has as its system HeLa. The series can be described thus: Cytotoxicity in HeLa cells (enterovirus assays). The format is cell-based. Particulars: line of HRV 1059.
For another series, the system named is COXV A7. The series can be described thus: CPE reduction assay, COXV A7. The format is cell-based. Particulars: Huh-7; COXV A7, strain WP Parker, Huh7 cells.
A further series relates to COXV B3. The series can be described thus: CPE reduction assay, COXV B3. It is filed as cell-based.
The next series concerns COXV B1. Put plainly: CPE reduction assay, COXV B1. The format is cell-based. The conditions noted are these: Huh-7; COXV B1, strain Conn5, Huh7 cells.
A further series has as its system Huh7. The series can be described thus: Cytotoxicity in Huh7 cells (enterovirus assays).
For another series, the system named is CV-B3. Particulars: read-out: EC50 against CV-B3; cited from earlier work.
Series [4] addresses human DNA polymerase gamma (Homo sapiens (Human), UniProt P54098). Put plainly: Human DNA polymerase inhibition assay, pol gamma.
The target of series [5] is human DNA polymerase alpha (Homo sapiens (Human), UniProt P09884). Put plainly: Human DNA polymerase inhibition assay, pol alpha. Particulars: read-out: Human DNA pol α (IC50 uM).
Sequence of human DNA polymerase alpha (P09884 whole entry): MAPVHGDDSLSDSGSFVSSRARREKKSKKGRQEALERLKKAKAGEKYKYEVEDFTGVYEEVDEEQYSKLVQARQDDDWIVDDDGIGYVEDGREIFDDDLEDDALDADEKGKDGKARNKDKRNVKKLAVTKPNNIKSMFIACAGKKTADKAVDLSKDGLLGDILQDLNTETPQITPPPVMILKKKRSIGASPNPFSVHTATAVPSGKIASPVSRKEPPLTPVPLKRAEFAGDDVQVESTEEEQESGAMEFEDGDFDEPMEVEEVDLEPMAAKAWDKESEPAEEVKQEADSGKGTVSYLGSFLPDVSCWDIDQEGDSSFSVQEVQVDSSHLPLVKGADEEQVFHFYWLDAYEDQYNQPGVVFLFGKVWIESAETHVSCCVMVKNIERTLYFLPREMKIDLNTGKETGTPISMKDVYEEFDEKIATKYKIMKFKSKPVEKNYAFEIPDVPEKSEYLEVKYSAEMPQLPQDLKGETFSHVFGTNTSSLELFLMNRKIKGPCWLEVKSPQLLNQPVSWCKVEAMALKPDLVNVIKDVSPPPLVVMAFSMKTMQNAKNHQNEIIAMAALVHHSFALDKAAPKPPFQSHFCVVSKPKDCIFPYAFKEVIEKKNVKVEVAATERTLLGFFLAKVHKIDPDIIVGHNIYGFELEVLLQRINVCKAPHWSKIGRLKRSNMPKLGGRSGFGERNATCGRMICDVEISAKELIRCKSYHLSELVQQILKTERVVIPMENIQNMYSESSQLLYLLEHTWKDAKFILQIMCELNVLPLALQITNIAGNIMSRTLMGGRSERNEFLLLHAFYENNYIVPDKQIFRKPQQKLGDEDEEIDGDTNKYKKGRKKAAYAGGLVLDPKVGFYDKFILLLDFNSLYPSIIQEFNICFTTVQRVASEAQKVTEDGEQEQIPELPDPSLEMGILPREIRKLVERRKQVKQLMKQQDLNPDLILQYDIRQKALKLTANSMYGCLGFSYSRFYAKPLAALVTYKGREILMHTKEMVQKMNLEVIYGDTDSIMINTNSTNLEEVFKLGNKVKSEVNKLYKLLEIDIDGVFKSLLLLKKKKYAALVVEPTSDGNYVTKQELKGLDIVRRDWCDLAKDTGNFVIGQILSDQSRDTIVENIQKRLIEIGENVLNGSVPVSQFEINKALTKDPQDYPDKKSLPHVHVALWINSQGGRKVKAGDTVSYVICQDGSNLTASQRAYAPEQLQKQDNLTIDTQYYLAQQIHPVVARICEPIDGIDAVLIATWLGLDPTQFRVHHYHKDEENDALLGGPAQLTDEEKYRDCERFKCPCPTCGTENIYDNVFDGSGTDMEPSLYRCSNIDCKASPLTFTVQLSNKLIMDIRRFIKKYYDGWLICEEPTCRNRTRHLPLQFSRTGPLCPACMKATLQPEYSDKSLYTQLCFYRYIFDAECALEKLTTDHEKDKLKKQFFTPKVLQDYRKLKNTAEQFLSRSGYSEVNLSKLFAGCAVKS
The target in series [6] is human DNA polymerase beta (Homo sapiens (Human), UniProt P06746). The series can be described thus: Human DNA polymerase inhibition assay, pol beta. The conditions noted are these: read-out: Human DNA pol β (IC50 uM).
The subject of a further series is HIV. Put plainly: HIV infected PBMC assay. It is filed as cell-based. The conditions noted are these: Human immunodeficiency virus 1, PBMC. How it is done: Fresh human peripheral blood mononuclear cells (PBMCs) were obtained from a commercial source (Biological Specialty) and were determined to be seronegative for HIV and HBV. Depending on the volume of donor blood received, the leukophoresed blood cells were washed several times with PBS. After washing, the leukophoresed blood was diluted 1:1 with Dulbecco's phosphate buffered saline (PBS) and layered over 15 mL of Ficoll-Hypaque density gradient in a 50 ml conical centrifuge tube. These tubes were centrifuged for 30 min at 600 g. Banded PBMCs were gently aspirated from the resulting interface and washed three times with PBS. After the final wash, cell number was determined by Trypan Blue dye exclusion and cells were re-suspended at 1×10^ 6 cells/mL in RPMI 1640 with 15% Fetal Bovine Serum (FBS), 2 mmol/L L-glutamine, 2 μg/mL PHA-P, 100 U/mL penicillin and 100 μg/mL streptomycin and allowed to incubate for 48-72 hours at 37° C. After incubation, PBMCs were centrifuged and resuspended in tissue culture medium. […]
Following addition of test compound to the wells, 50 μL of a predetermined dilution of HIV virus (prepared from 4× of final desired in-well concentration) was added, and mixed well. […] After 7 days in culture, HIV-1 replication was quantified in the tissue culture supernatant by measurement of reverse transcriptase (RT) activity. […]

The subject of the next series is HBV. The series can be described thus: HBV replication in HepG2.2.15 cells (viral DNA by qPCR). The format is cell-based. Particulars: Hepatitis B virus. The method, then:
HepG2.2.15 cells (100 μL) in RPMI1640 medium with 10% fetal bovine serum was added to all wells of a 96-well plate at a density of 1×10^4 cells per well and the plate was incubated at 37° C. in an environment of 5% CO2 for 24 hours. Following incubation, six ten-fold serial dilutions of test compound prepared in RPMI1640 medium with 10% fetal bovine serum were added to individual wells of the plate in triplicate. Six wells in the plate received medium alone as a virus only control. The plate was incubated for 6 days at 37° C. in an environment of 5% CO2. The culture medium was changed on day 3 with medium containing the indicated concentration of each compound. One hundred microliters of supernatant was collected from each well for analysis of viral DNA by qPCR and cytotoxicity was evaluated by XTT staining of the cell culture monolayer on the sixth day.
Ten microliters of cell culture supernatant collected on the sixth day was diluted in qPCR dilution buffer (40 μg/mL sheared salmon sperm DNA) and boiled for 15 minutes. Quantitative real time PCR was performed in […] using an Applied Biosystems 7900HT Sequence Detection System and the supporting SDS 2.4 software. […]

The next series deals with VZV. Put plainly: Inhibition of DNA virus replication, VZV. It is filed as cell-based. Particulars: Human alphaherpesvirus 3.
The nature of series [7]: Cytotoxicity in PBM cells. It is filed as cell-based. The conditions noted are these: human, PHA-P-stimulated peripheral blood mononuclear cells (PBMCs); beside HIV.
The nature of series [8]: Cytotoxicity in MRC-5 cells (DNA virus table). The format is cell-based. Particulars: human, MRC-5 cells; beside HCMV.
The test system of the next series is MRC-5 Cells. The series can be described thus: Cytotoxicity in MRC-5 cells (DNA virus table). The format is cell-based. The conditions noted are these: beside VZV.
A further series relates to HSV-1. The series can be described thus: Inhibition of DNA virus replication, HSV-1. It is filed as cell-based. The conditions noted are these: Human alphaherpesvirus 1.
The nature of series [9]: Cytotoxicity in HepG2 cells (XTT). It is filed as cell-based. The conditions noted are these: human, beside HBV. How it is done:
The 50% cytotoxic concentration for the test materials are derived by measuring the reduction of the tetrazolium dye XTT in the treated tissue culture plates. XTT is metabolized by the mitochondrial enzyme NADPH oxidase to a soluble formazan product in metabolically active cells. XTT solution was prepared daily as a stock of 1 mg/mL in PBS. Phenazine methosulfate (PMS) stock solution was prepared at 0.15 mg/mL in PBS and stored in the dark at −20° C. XTT/PMS solution was prepared immediately before use by adding 40 µL of PMS per 1 mL of XTT solution. Fifty microliters of XTT/PMS was added to each well of the plate and the plate incubated for 2-4 hours at 37° C. The 2-4 hour incubation has been empirically determined to be within linear response range for XTT dye reduction with the indicated numbers of cells for each assay. Adhesive plate sealers were used in place of the lids, the sealed plate was inverted several times to mix the soluble formazan product and the plate was read at 450 nm (650 nm reference wavelength) with a Molecular Devices SpectraMax Plus 384 spectrophotometer. Data were collected by Softmax 4.6 software and imported into an Excel spreadsheet for analysis.
On the technique in general: Tetrazolium dyes change colour on reduction, which living cells bring about.

The subject of another series is Adenovirus. Put plainly: Inhibition of DNA virus replication, Adenovirus. The conditions noted are these: unidentified adenovirus. The format is cell-based.
The test system of a further series is HCMV. The series can be described thus: Inhibition of DNA virus replication, HCMV. The conditions noted are these: Human betaherpesvirus 5. The format is cell-based.
The nature of series [10]: Cytotoxicity in Huh-7 cells (DNA virus table). The format is cell-based. The conditions noted are these: human, Huh-7 cells; beside Adenovirus.
For another series, the system named is Huh-7 Cells. Put plainly: Cytotoxicity in Huh-7 cells (DNA virus table). The format is cell-based. The conditions noted are these: beside HSV-1.

Sequence of human DNA polymerase gamma (P54098 whole entry): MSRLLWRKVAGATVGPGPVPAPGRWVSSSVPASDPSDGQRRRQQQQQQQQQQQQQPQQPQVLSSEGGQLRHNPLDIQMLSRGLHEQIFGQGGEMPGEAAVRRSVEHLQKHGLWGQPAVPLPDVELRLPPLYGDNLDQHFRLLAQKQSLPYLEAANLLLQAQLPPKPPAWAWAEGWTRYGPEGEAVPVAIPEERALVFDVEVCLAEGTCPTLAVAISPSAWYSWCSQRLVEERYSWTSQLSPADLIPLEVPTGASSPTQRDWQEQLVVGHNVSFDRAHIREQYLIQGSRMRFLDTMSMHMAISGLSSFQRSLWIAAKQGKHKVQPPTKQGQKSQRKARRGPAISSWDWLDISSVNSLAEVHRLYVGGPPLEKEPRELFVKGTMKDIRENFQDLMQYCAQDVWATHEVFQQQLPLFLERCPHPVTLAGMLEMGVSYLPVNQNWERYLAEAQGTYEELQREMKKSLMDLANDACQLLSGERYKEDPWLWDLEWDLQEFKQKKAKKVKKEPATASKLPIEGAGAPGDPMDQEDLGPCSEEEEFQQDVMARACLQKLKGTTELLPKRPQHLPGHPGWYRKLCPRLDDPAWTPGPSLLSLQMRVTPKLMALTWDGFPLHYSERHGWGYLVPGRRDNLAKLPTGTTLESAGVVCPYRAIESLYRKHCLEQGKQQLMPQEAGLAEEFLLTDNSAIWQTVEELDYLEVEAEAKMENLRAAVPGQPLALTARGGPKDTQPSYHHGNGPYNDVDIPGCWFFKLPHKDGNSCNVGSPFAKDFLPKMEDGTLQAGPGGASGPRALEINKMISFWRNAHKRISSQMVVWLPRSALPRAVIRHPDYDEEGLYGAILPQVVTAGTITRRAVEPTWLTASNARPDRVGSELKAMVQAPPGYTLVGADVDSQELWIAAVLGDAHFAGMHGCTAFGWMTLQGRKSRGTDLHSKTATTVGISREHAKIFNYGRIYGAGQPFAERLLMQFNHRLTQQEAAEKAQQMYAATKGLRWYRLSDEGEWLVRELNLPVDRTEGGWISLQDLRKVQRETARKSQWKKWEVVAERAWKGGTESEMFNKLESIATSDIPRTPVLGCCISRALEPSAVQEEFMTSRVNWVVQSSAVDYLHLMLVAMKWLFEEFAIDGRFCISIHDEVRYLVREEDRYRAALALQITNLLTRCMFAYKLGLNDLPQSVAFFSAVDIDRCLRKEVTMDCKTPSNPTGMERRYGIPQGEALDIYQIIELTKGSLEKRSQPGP

In the case of `CC(C)(C)C(=O)OCOP(=O)(OCOC(=O)C(C)(C)C)OC[C@H]1O[C@@H](n2ccc(=O)[nH]c2=S)[C@](C)(O)[C@@H]1O` [EIDD-2523], the CC50 in series [1] (line of EV68 US/KY/14-18953) was 91 µM; in series [1] (line of EV71 Tainan/4643/98) it was 50 µM; in “in vitro” it was 31 µM; in [2] it was 32 µM; in [3] it was above 100 µM; in the series with HeLa, above 100 µM. Besides, the CC50 stood at 30 µM with Huh7 (line of COXV A7 WP Parker); 32 µM in the series on Huh7 (line of COXV A18 G13); 31 µM in the series on Huh7 (line of COXV B1 Conn5); 34 µM in the series with Huh7 (line of COXV B2 Ohio 1); 46 µM with Huh7 (line of COXV B3 HA 201933); 32 µM in the series on Huh7 (line of COXV B3 Nancy). This molecule gave a CC50 with Huh7 (line of COXV B4 JVB) of 16 µM. In addition, the EC50 in the series on EV70 is 0.07 µM; with COXV A18, 2.69 µM; in the series on COXV B4, above 16 µM; in the series on COXV B2, 2.65 µM; in the series on HRV (strain 26, HeLa cells), 0.43 µM; in the series with HRV (strain 1059, HeLa cells) it was 0.72 µM. The 50% effective concentration (EC50) in the series with EV68 came out at 0.38 µM; in the series on EV71 (MRC5, EV71, strain H, MRC-5 cells), 1.71 µM; with EV71 (EV71, strain Tainan/4643/98, RD cells), 5.3 µM; in the series on COXV A7 it was 3.37 µM; in the series on COXV B3 (Huh-7, COXV B3 (printed COXV 83 in the 3rd table), strain HA 201933, Huh7 cells), 9.3 µM; with COXV B3 (Huh-7, COXV B3, strain Nancy, Huh7 cells), 0.38 µM. The concentration for a half-maximal effect (EC50) in the series on COXV B1 was above 31 µM.

As for `CN(C)c1ccc(C(=O)O)cc1` [4-Dimethylamino benzoic acid], in the series with CV-B3, the concentration for a half-maximal effect (EC50) is 9 µM.

As to `CC1(O)[C@@H](O)[C@@H](COP(=O)(O)OP(=O)(O)OP(=O)(O)O)O[C@H]1n1ccc(=O)[nH]c1=S` (stereo partly drawn), the 50% inhibitory concentration (IC50) in series [4] was above 1000 µM; in [5], above 1000 µM; in series [6], 588 µM.

For `CC(C)OC(=O)[C@H](C)NP(=O)(OC[C@H]1O[C@@H](n2ccc(=O)[nH]c2=S)C(C)(O)[C@H]1O)Oc1ccccc1` (stereo partly drawn), the EC50 with HIV, in the series with VZV, in the series with HSV-1 and in the series on HCMV was above 100 µM throughout. For the same molecule, the IC50 in the series on HBV and in the series with Adenovirus was above 100 µM in each case. In addition, the CC50 at 7 days in series [7] was above 100 µM. Besides, the CC50 (in series [8]; in the series with MRC-5 Cells; in [9]; in [10]; with Huh-7 Cells) was above 100 µM throughout.

For orientation: EC50 means the concentration giving half of the maximal effect. The term IC50 denotes the concentration at which inhibition is half-maximal.
